This is an account of results in US20030108523A1, “Cancer treatment system” (priority 2001, published 2003).

The test system of assay [1] is Mesothelioma cells. The assay is described as follows: Cell-growth inhibition assay (MTT colorimetric assay). The format is cell-based, human. Here is the method: Various mesothelioma cell lines were established from specimens obtained from pleural effusions of patients with established pleural malignant mesothelioma. Cell cultures were performed according to standard methods. Briefly, pleural effusions were centrifuged and the cell pellets were transferred into 25 cm^2 tissue culture flasks. The medium consisted of RPMI 1640 supplemented with 10% fetal bovine serum, 2 mM glutamine, 10 mM HEPES buffer, 50 U/ml penicillin, and 50 μg/ml streptomycin. Cultures were maintained in humidified atmosphere of 5% CO2 at 37° C. and examined daily. When cells were confluent, a trypsin-EDTA mixture in PBS was used to detach the cells, and the cultures were used between passages 5 and 20.
Mesothelioma cells were counted and dispensed into eight, 96-well tissue-culture plates (Costar, Cambridge, Mass.) at a concentration of 2,000 cells/well in 100 μl of culture medium. […] Culture plates were then incubated for different times between 0 and 168 hours and cell proliferation was measured every 24 hours. […]
Cell proliferation was determined by a colorimetric assay using MTT [3(4,5-dimethylthiazol-2yl)2,5-diphenyltetrazolium bromide], a tetrazolium salt which is reduced to a colored formazan product by reducing enzymes present only in metabolically active cells. (See Alley et al., “Feasibility of drug screening with panel of human tumor cell lines using a microculture tetrazolium assay” Cancer Res. 48: 589-601, 1988.) Thus, metabolically active cells such as cells undergoing division will produce more formazan, which can be detected by a spectrophotometer.
Briefly, twenty-five μls of MTT solution were added to culture wells containing cells as described above. […] Absorption of each well was measured using a spectrophotometer at 540 nm. The effect of α-MSH on cell proliferation was determined as percent OD difference in α-MSH treated wells relative to control wells. […]

The test system of assay [2] is NF-κB. To be noted: U937 cells; cited from earlier work.
The conditions of assay [3]: in vivo; cited from earlier work.

As to “SYSMEHFRWGKPV (listed as Homo sapiens) [α-MSH, thirteen amino-acid peptide produced by post-translational processing of propiomelanocortin]”, the “Dose dependence of the inhibitory effect on mesothelioma cell proliferation” value in assay [1] (10^-6 to 10^-4 M, FIG. 2) was “dose-dependent”. Moreover, in assay [1] (FIG. 2), the “Concentration at which the inhibitory effect was most significant and consistent” value was 10^−4 M. For the same substance, the “Cell proliferation of treated versus control wells, early intervals” value in assay [1] (intervals between 24 and 72 h) is recorded as “no difference in cell proliferation”. Also, the “NF-κB activation induced by TNF-α, endotoxin, ceramide and okadaic acid” value in assay [2] is reported as “downregulates NF-κB activation”.
As to [Nle4-D-Phe7]-α-MSH, in assay [3], the “Potency in reducing fever relative to the parent peptide α-MSH” value is “approximately ten times more potent”.
